In US12264156B2, “Compounds and pharmaceutical compositions thereof for the treatment of diseases” (GALAPAGOS NV, priority 2018, dated 2025) one finds EC50 data, which are given here for 21 compounds.

This test deals with LPS-induced TNFα in monocytes. Briefly: Monocytes assay: LPS-triggered TNFα (ELISA). The format is cell-based, human. The conditions noted are these: LPS 200 ng/mL, supernatant after 4 h. The method in brief: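 Supernatant TNFα was quantified by luminol-based sandwich ELISA after 4 h stimulation with LPS (200 ng/mL final). The cells were CD14-bead-purified monocytes from human PBMCs, 100 000 per well, exposed to 3-fold compound dilutions for 1 h at 37° C beforehand, with DMSO at 0.2%. Results are reported as percent inhibition.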

In the case of `COc1cc(-c2cnc3cc(OCC(O)CN4CCOCC4)ccn23)cc(OC(F)F)c1C(=O)NC1CC1` (single isomer, unassigned) [Cpd 386, N-cyclopropyl-2-(difluoromethoxy)-4-[7-(2-hydroxy-3-morpholino-propoxy)imidazo[1,2-a]pyridin-3-yl]-6-methoxy-benzamide], the EC50 was 100 to 1000 nM.
Consider `COc1cc(-c2cnc3cc(OCC(O)CN4CCOCC4)ccn23)cc(OC(F)F)c1C(=O)NC1CC1` (single isomer, unassigned) [Cpd 387, N-cyclopropyl-2-(difluoromethoxy)-4-[7-(2-hydroxy-3-morpholino-propoxy)imidazo[1,2-a]pyridin-3-yl]-6-methoxy-benzamide], for which the concentration giving a half-maximal response (EC50) lay within 0.1 to 100 nM.
For the setting “Homo sapiens, Monocyte, 4 h”, `COc1cc(-c2cnc3cc(OC(C)(C)CO)ccn23)cc(OC(F)F)c1C(=O)NC1CC1` [Cpd 209, N-cyclopropyl-2-(difluoromethoxy)-4-[7-(2-hydroxy-1,1-dimethyl-ethoxy)imidazo[1,2-a]pyridin-3-yl]-6-methoxy-benzamide] gave a concentration for a half-maximal effect (EC50) of 100 to 1000 nM.
On the same count and under the same terms, under `COc1cc(-c2cnc3cc(OCCN4CC(F)(F)C4)ccn23)cc2c1C(=O)N(CC(F)(F)F)CC2` [Cpd 244, 6-[7-[2-(3,3-difluoroazetidin-1-yl)ethoxy]imidazo[1,2-a]pyridin-3-yl]-8-methoxy-2-(2,2,2-trifluoroethyl)-3,4-dihydroisoquinolin-1-one] stands 100 to 1000 nM.
On the same count and under the same terms, for `COc1cc(-c2cnc3cc(OCCN4CCOC[C@@H]4C)ccn23)cc2c1C(=O)N(CC(F)(F)F)CC2` [Cpd 257, 8-methoxy-6-[7-[2-[(3S)-3-methylmorpholin-4-yl]ethoxy]imidazo[1,2-a]pyridin-3-yl]-2-(2,2,2-trifluoroethyl)-3,4-dihydroisoquinolin-1-one] the value was 100 to 1000 nM.
Same read-out and setting: under `COc1cc(-c2cnc3cc(OCCCN4CC(O)C4)ccn23)cc(OC(F)F)c1C(=O)NC1CC1` [Cpd 286, N-cyclopropyl-2-(difluoromethoxy)-4-[7-[3-(3-hydroxyazetidin-1-yl)propoxy]imidazo[1,2-a]pyridin-3-yl]-6-methoxy-benzamide] stands 100 to 1000 nM; under `COc1cc(-c2cnc3cc(OCC(O)CN4CCCCC4)ccn23)cc(OC(F)F)c1C(=O)NC1CC1` (stereo not drawn) [Cpd 321, N-cyclopropyl-2-(difluoromethoxy)-4-[7-[2-hydroxy-3-(1-piperidyl)propoxy]imidazo [1,2-a]pyridin-3-yl]-6-methoxy-benzamide], 0.1 to 100 nM; under `COc1cc(-c2cnc3cc(OCCCN4CCC5(CC4)CNC(=O)O5)ccn23)cc(OC(F)F)c1C(=O)NC1CC1` [Cpd 324, N-cyclopropyl-2-(difluoromethoxy)-6-methoxy-4-[7-[3-(2-oxo-1-oxa-3,8-diazaspiro[4.5]decan-8-yl)propoxy]imidazo[1,2-a]pyridin-3-yl]benzamide], 100 to 1000 nM.
`COc1cc(-c2cnc3cc(OCC(O)CN4CCOCC4)ccn23)cc(OC(F)F)c1C(=O)NC1CC1` (stereo not drawn) [Cpd 330, N-cyclopropyl-2-(difluoromethoxy)-4-[7-(2-hydroxy-3-morpholino-propoxy)imidazo[1,2-a]pyridin-3-yl]-6-methoxy-benzamide] gave an EC50 (Homo sapiens, Monocyte, 4 h) of 100 to 1000 nM.
Same read-out and setting: under `COc1cc(-c2cnc3cc(OCCCN4CCS(=O)(=O)CC4)ccn23)cc(OC(F)F)c1C(=O)NC1CC1` [Cpd 331, N-cyclopropyl-2-(difluoromethoxy)-4-[7-[3-(1,1-dioxo-1,4-thiazinan-4-yl)propoxy]imidazo[1,2-a]pyridin-3-yl]-6-methoxy-benzamide] stands 0.1 to 100 nM.
Same read-out and setting: under `CCOC(=O)C1(F)CCN(CCCOc2ccn3c(-c4cc(OC)c(C(=O)NC5CC5)c(OC(F)F)c4)cnc3c2)CC1` [Cpd 363, ethyl 1-[3-[3-[4-(cyclopropylcarbamoyl)-3-(difluoromethoxy)-5-methoxy-phenyl]imidazo[1,2-a]pyridin-7-yl]oxypropyl]-4-fluoro-piperidine-4-carboxylate] stands 0.1 to 100 nM; under `COc1cc(-c2cnc3cc(OCCN4CCN(C)CC4)ccn23)cc(OC(F)F)c1C(=O)NC1CC1` [compound 9, N-cyclopropyl-2-(difluoromethoxy)-6-methoxy-4-[7-[2-(4-methylpiperazin-1-yl)ethoxy]imidazo[1,2-a]pyridin-3-yl]benzamide], 0.1 to 100 nM.
The compound `COc1cc(-c2cnc3cc(OCCN4C5CCC4COC5)ccn23)cc(OC(F)F)c1C(=O)NC1CC1` [compound 193, N-cyclopropyl-2-(difluoromethoxy)-6-methoxy-4-[7-[2-(3-oxa-8-azabicyclo [3.2.1]octan-8-yl)ethoxy]imidazo[1,2-a]pyridin-3-yl]benzamide] had a 50% effective concentration (EC50) (Homo sapiens, Monocyte) of 0.1 to 100 nM.
`COc1cc(-c2cnc3cc(OCCN4CCOCC4)ccn23)cc2c1C(=O)N(CC(F)F)CC2` [compound 218, 2-(2,2-difluoroethyl)-8-methoxy-6-[7-(2-morpholinoethoxy)imidazo [1,2-a]pyridin-3-yl]-3,4-dihydroisoquinolin-1-one] gave an EC50 (Homo sapiens, Monocyte, 4 h) of 100 to 1000 nM.
Turning to `COc1cc(-c2cnc3cc(OC[C@H]4COCCO4)ccn23)cc2c1C(=O)N(CC(F)F)CC2` [compound 219, 2-(2,2-difluoroethyl)-6-[7-[[(2R)-1,4-dioxan-2-yl]methoxy]imidazo[1,2-a]pyridin-3-yl]-8-methoxy-3,4-dihydroisoquinolin-1-one], where the note is “Homo sapiens, Monocyte, 4 h”, the EC50 was in the range of 100 to 1000 nM.
On the same count and under the same terms, for `COc1cc(-c2cnc3cc(OCC4(C)CN(C)C4)ccn23)cc(OC(F)F)c1C(=O)NC1CC1` [compound 220, N-cyclopropyl-2-(difluoromethoxy)-4-[7-[(1,3-dimethylazetidin-3-yl)methoxy]imidazo[1,2-a]pyridin-3-yl]-6-methoxy-benzamide] the value was 100 to 1000 nM.
As to `COc1cc(-c2cnc3cc(OCc4nncn4C)ccn23)cc(OC(F)F)c1C(=O)NC1CC1` [compound 227, N-cyclopropyl-2-(difluoromethoxy)-6-methoxy-4-[7-[(4-methyl-1,2,4-triazol-3-yl)methoxy]imidazo[1,2-a]pyridin-3-yl]benzamide], the EC50 (Homo sapiens, Monocyte, 4 h) was in the range of 1000 to 5000 nM.
For the compound `COc1cc(-c2cnc3cc(OCCN4CCOC[C@@H]4C)ccn23)cc(OC(F)F)c1C(=O)NC1CC1` [compound 233, N-cyclopropyl-2-(difluoromethoxy)-6-methoxy-4-[7-[2-[(3S)-3-methylmorpholin-4-yl]ethoxy]imidazo[1,2-a]pyridin-3-yl]benzamide], under “Homo sapiens, Monocyte, 4 h”, the half-maximal effective concentration (EC50) fell in the range of 100 to 1000 nM.
The same measure, in the same setting: under `COc1cc(-c2cnc3cc(OCCN4CCOC[C@H]4C)ccn23)cc(OC(F)F)c1C(=O)NC1CC1` [compound 234, N-cyclopropyl-2-(difluoromethoxy)-6-methoxy-4-[7-[2-[(3R)-3-methylmorpholin-4-yl]ethoxy]imidazo[1,2-a]pyridin-3-yl]benzamide] stands 100 to 1000 nM; under `COc1cc(-c2cnc3cc(OC[C@H]4COCCO4)ccn23)cc2c1C(=O)NCC2` [compound 242, 6-[7-[[(2R)-1,4-dioxan-2-yl]methoxy]imidazo[1,2-a]pyridin-3-yl]-8-methoxy-3,4-dihydro-2H-isoquinolin-1-one], 100 to 1000 nM; under `COc1cc(-c2cnc3cc(OCC4(F)CN(C(=O)OC(C)(C)C)C4)ccn23)cc2c1C(=O)N(CC(F)(F)F)CC2` [compound 248, tert-butyl 3-fluoro-3-[[3-[8-methoxy-1-oxo-2-(2,2,2-trifluoroethyl)-3,4-dihydroisoquinolin-6-yl]imidazo[1,2-a]pyridin-7-yl]oxymethyl]azetidine-1-carboxylate], 100 to 1000 nM.

One may read the EC50 as the concentration at which the effect is half-maximal. Read a high EC50 as weaker potency.
